Results as given in patent publication EP2970215B1, “PYRROLIDINE DERIVATIVES, PHARMACEUTICAL COMPOSITIONS CONTAINING THEM, AND THEIR USE IN THERAPY” (AbbVie Deutschland GmbH & Co. KG, priority 2013, dated 2014).

Molecular target: T1, human GlyT1c transporter (Homo sapiens, UniProt P48067)
T1 construct: expressed in transfected cells; host or cells: CHO cells (recombinant; line hGlyT1c_5_CHO is named for the uptake assay)
T1 sequence (P48067 1-706): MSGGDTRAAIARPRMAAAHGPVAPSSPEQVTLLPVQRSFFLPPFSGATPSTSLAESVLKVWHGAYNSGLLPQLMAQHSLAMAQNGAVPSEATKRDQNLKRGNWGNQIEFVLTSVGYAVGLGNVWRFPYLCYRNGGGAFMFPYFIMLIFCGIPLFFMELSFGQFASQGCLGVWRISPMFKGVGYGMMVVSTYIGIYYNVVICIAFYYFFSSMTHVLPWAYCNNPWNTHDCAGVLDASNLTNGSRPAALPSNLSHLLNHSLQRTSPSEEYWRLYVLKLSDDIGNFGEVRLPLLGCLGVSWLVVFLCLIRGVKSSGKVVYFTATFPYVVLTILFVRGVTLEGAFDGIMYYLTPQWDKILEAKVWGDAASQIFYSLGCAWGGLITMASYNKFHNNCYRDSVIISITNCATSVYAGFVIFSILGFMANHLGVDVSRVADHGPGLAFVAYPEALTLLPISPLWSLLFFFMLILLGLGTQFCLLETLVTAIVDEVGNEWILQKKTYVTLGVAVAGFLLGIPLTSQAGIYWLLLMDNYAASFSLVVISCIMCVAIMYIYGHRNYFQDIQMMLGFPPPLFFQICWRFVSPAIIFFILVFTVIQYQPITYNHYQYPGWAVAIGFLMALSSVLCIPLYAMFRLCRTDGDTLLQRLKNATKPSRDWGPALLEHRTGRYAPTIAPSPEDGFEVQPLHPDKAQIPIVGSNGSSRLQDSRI
Assay: Radioligand binding assay using recombinant CHO cell membranes expressing human GlyT1
Details: radioligand binding to human GlyT1c transporter-expressing membranes
Source text: 2. Radioligand binding assays using recombinant CHO cell membranes expressing human GlyT1: […]

Q: `Cn1cnc(S(=O)(=O)N2C[C@@H](NC(=O)c3ccccc3Cl)[C@H](c3ccccc3)C2)c1` (relative stereo) [Example 14, 2-chloro-N-{trans-1-[(1-methyl-1H-imidazol-4-yl)sulfonyl]-4-phenylpyrrolidin-3-yl}benzamide] was tested. Which Ki did it give?
A: ≤ 1 µM

Q: For `Cn1cnc(S(=O)(=O)N2C[C@@H](Nc3cc(C(F)(F)F)ccc3F)[C@H](c3ccc(F)cc3)C2)c1` (relative stereo) [Example 169, trans-4-(4-fluorophenyl)-N-[2-fluoro-5-(trifluoromethyl)phenyl]-1-[(1-methyl-1H-imidazol-4-yl)sulfonyl]pyrrolidin-3-amine], which Ki is on record?
A: ≤ 10 µM

Q: With `Cn1cnc(S(=O)(=O)N2C[C@H](NCCCC(F)(F)F)[C@@H](c3ccccc3)C2)c1` [Example 426, (3R,4S)-1-[(1-methyl-1H-imidazol-4-yl)sulfonyl]-4-phenyl-N-(4,4,4-trifluorobutyl)pyrrolidin-3-amine] as the molecule, how does the Ki read?
A: ≤ 1 µM

Q: With `Cn1cnc(S(=O)(=O)N2C[C@H](Nc3cccc(C(F)(F)F)n3)[C@@H](c3ccc(F)cc3)C2)c1` [Example 351, N-{(3R,4S)-4-(4-fluorophenyl)-1-[(1-methyl-1H-imidazol-4-yl)sulfonyl]pyrrolidin-3-yl}-6-(trifluoromethyl)pyridin-2-amine] as the molecule, how does the Ki read?
A: ≤ 1 µM

Q: With `CCC(C)(C)CN[C@H]1CN(S(=O)(=O)c2cn(C)cn2)C[C@@H]1c1ccccc1` [Example 450, (3R,4S)-N-(2,2-dimethylbutyl)-1-[(1-methyl-1H-imidazol-4-yl)sulfonyl]-4-phenylpyrrolidin-3-amine] as the molecule, how does the Ki read?
A: ≤ 1 µM

Q: With `CCCNC[C@@H]1CN(S(=O)(=O)c2cn(C)cn2)C[C@H]1c1ccc(F)cc1` (relative stereo) [Example 594, N-({trans-4-(4-fluorophenyl)-1-[(1-methyl-1H-imidazol-4-yl)sulfonyl]pyrrolidin-3-yl}methyl)propan-1-amine] as the molecule, how does the Ki read?
A: ≤ 10 µM

Q: How did the Ki turn out when `COCCCNC[C@@H]1CN(S(=O)(=O)c2cn(C)cn2)C[C@H]1c1ccc(F)cc1` (relative stereo) [Example 597, N-({trans-4-(4-fluorophenyl)-1-[(1-methyl-1H-imidazol-4-yl)sulfonyl]pyrrolidin-3-yl}methyl)-3-methoxypropan-1-amine] was run?
A: ≤ 10 µM

Q: `Cn1cnc(S(=O)(=O)N2C[C@H](NCc3cccn4ccnc34)[C@@H](c3ccccc3)C2)c1` [Example 535, (3R,4S)-N-(imidazo[1,2-a]pyridin-8-ylmethyl)-1-[(1-methyl-1H-imidazol-4-yl)sulfonyl]-4-phenylpyrrolidin-3-amine] was tested. Which Ki did it give?
A: ≤ 10 µM

Q: `Cn1cnc(S(=O)(=O)N2C[C@H](NCC3CCOC3)[C@@H](c3ccccc3)C2)c1` (stereo partly drawn) [Example 447, (3R,4S)-1-[(1-methyl-1H-imidazol-4-yl)sulfonyl]-4-phenyl-N-(tetrahydrofuran-3-ylmethyl)pyrrolidin-3-amine] was tested. Which Ki did it give?
A: ≤ 10 µM

Q: `COc1ccc(N[C@@H]2CN(S(=O)(=O)c3cn(C)cn3)C[C@H]2c2ccccc2)cc1C#N` (relative stereo) [Example 100, 2-methoxy-5-({trans-1-[(1-methyl-1H-imidazol-4-yl)sulfonyl]-4-phenylpyrrolidin-3-yl}amino)benzonitrile] was tested. Which Ki did it give?
A: ≤ 10 µM

Q: For `CCCCCCO[C@H]1CN(S(=O)(=O)c2cn(C)cn2)C[C@@H]1c1ccc(F)cc1` [Example 625, 4-{[(3S,4R)-3-(4-fluorophenyl)-4-(hexyloxy)pyrrolidin-1-yl]sulfonyl}-1-methyl-1H-imidazole], which Ki is on record?
A: ≤ 0.01 µM

Q: With `CCCCCC(=O)N[C@H]1CN(S(=O)(=O)c2cn(C)cn2)C[C@@H]1c1ccccc1` [Example 550, N-{(3R,4S)-1-[(1-methyl-1H-imidazol-4-yl)sulfonyl]-4-phenylpyrrolidin-3-yl}hexanamide] as the molecule, how does the Ki read?
A: ≤ 10 µM

Q: `Cn1cnc(S(=O)(=O)N2C[C@@H](NC(=O)c3ccccc3F)[C@H](c3ccccc3)C2)c1` (relative stereo) [Example 17, 2-fluoro-N-{trans-1-[(1-methyl-1H-imidazol-4-yl)sulfonyl]-4-phenylpyrrolidin-3-yl}benzamide] was tested. Which Ki did it give?
A: ≤ 10 µM

Q: How did the Ki turn out when `Cn1cnc(S(=O)(=O)N2C[C@H](Nc3ncnc4[nH]ccc34)[C@@H](c3ccccc3)C2)c1` [Example 406, N-{(3R,4S)-1-[(1-methyl-1H-imidazol-4-yl)sulfonyl]-4-phenylpyrrolidin-3-yl}-7H-pyrrolo[2,3-d]pyrimidin-4-amine] was run?
A: ≤ 10 µM

Q: How did the Ki turn out when `Cc1cccc(NC(=O)[C@@H]2CN(S(=O)(=O)c3cn(C)cn3)C[C@H]2c2ccc(F)cc2)c1` (relative stereo) [Example 316, trans-4-(4-fluorophenyl)-1-[(1-methyl-1H-imidazol-4-yl)sulfonyl]-N-(3-methylphenyl)pyrrolidine-3-carboxamide] was run?
A: ≤ 1 µM

Q: `Cn1cnc(S(=O)(=O)N2C[C@@H]([C@@H]3CCCOC3)[C@H](Nc3cccc(-c4ccccc4)c3)C2)c1` (mixture of isomers) [Example 787, trans-N-(biphenyl-3-yl)-1-[(1-methyl-1H-imidazol-4-yl)sulfonyl]-4-[(3S)-tetrahydro-2H-pyran-3-yl]pyrrolidin-3-amine] was tested. Which Ki did it give?
A: ≤ 1 µM

Q: For `Cn1cnc(S(=O)(=O)N2C[C@@H](Nc3ccc(F)c(C(F)(F)F)c3)[C@H](c3ccccc3Cl)C2)c1` (relative stereo) [Example 258, trans-4-(2-chlorophenyl)-N-[4-fluoro-3-(trifluoromethyl)phenyl]-1-[(1-methyl-1H-imidazol-4-yl)sulfonyl]pyrrolidin-3-amine], which Ki is on record?
A: ≤ 1 µM

Q: How did the Ki turn out when `Cn1cnc(S(=O)(=O)N2C[C@@H](C(=O)c3ccc(F)c(F)c3)[C@H](c3ccc(F)cc3)C2)c1` (relative stereo) [Example 357, (3,4-Difluorophenyl){trans-4-(4-fluorophenyl)-1-[(1-methyl-1H-imidazol-4-yl)sulfonyl]pyrrolidin-3-yl}methanone] was run?
A: ≤ 1 µM

Q: `Cc1ccc(-c2ncc(CN[C@H]3CN(S(=O)(=O)c4cn(C)cn4)C[C@@H]3c3ccccc3)s2)cc1` [Example 572, (3R,4S)-1-[(1-methyl-1H-imidazol-4-yl)sulfonyl]-N-{[2-(4-methylphenyl)-1,3-thiazol-5-yl]methyl}-4-phenylpyrrolidin-3-amine] was tested. Which Ki did it give?
A: ≤ 1 µM

Q: `Cn1cnc(S(=O)(=O)N2C[C@H](Nc3cccc(F)c3)[C@@H](c3ccc(F)cc3)C2)c1` [Example 353, (3R,4S)-N-(3-fluorophenyl)-4-(4-fluorophenyl)-1-[(1-methyl-1H-imidazol-4-yl)sulfonyl]pyrrolidin-3-amine] was tested. Which Ki did it give?
A: ≤ 0.1 µM

Q: How did the Ki turn out when `Cn1cnc(S(=O)(=O)N2C[C@@H](NC(=O)C3(C(F)(F)F)CC3)[C@H](c3ccccn3)C2)c1` (relative stereo) [Example 374, N-[Trans-1-[(1-methyl-1H-imidazol-4-yl)sulfonyl]-4-(pyridin-2-yl)pyrrolidin-3-yl]-1-(trifluoromethyl)cyclopropanecarboxamide] was run?
A: ≥ 10 µM

Q: `Cn1cnc(S(=O)(=O)N2C[C@H](Nc3cc(C(F)(F)F)ccn3)[C@@H](c3ccccc3)C2)c1` [Example 396, N-{(3R,4S)-1-[(1-methyl-1H-imidazol-4-yl)sulfonyl]-4-phenylpyrrolidin-3-yl}-4-(trifluoromethyl)pyridin-2-amine] was tested. Which Ki did it give?
A: ≤ 0.01 µM

Q: With `Cn1cnc(S(=O)(=O)N2C[C@@H](Nc3cccc(Cl)c3)[C@H](c3ccc(F)cc3)C2)c1` [Example 325, (3S,4R)-N-(3-chlorophenyl)-4-(4-fluorophenyl)-1-[(1-methyl-1H-imidazol-4-yl)sulfonyl]pyrrolidin-3-amine] as the molecule, how does the Ki read?
A: ≤ 1 µM

Q: With `Cn1cnc(S(=O)(=O)N2C[C@@H]([C@@H]3CCCOC3)[C@H](Nc3ccc(F)c(C(F)(F)F)c3)C2)c1` (mixture of isomers) [Example 791, Trans-N-[4-fluoro-3-(trifluoromethyl)phenyl]-1-[(1-methyl-1H-imidazol-4-yl)sulfonyl]-4-[(3S)-tetrahydro-2H-pyran-3-yl]pyrrolidin-3-amine] as the molecule, how does the Ki read?
A: ≤ 1 µM

Q: Which Ki does the source give for `Cn1cnc(S(=O)(=O)N2C[C@@H](NC(=O)c3cccc(Cl)c3)[C@H](c3ccccc3)C2)c1` (relative stereo) [Example 15, 3-chloro-N-{trans-1-[(1-methyl-1H-imidazol-4-yl)sulfonyl]-4-phenylpyrrolidin-3-yl}benzamide] here?
A: ≤ 10 µM

Q: Which Ki does the source give for `Cn1cnc(S(=O)(=O)N2C[C@@H](Nc3ccnc(F)c3)[C@H](c3ccccc3)C2)c1` (relative stereo) [Example 236, 2-fluoro-N-{trans-1-[(1-methyl-1H-imidazol-4-yl)sulfonyl]-4-phenylpyrrolidin-3-yl}pyridin-4-amine] here?
A: ≤ 10 µM

Q: Which Ki does the source give for `Cn1cnc(S(=O)(=O)N2C[C@@H](OCc3ccc(S(C)(=O)=O)cc3)[C@H](c3ccc(F)cc3)C2)c1` (relative stereo) [Example 713, 4-{[trans-3-(4-fluorophenyl)-4-{[4-(methylsulfonyl)benzyl]oxy}pyrrolidin-1-yl]sulfonyl}-1-methyl-1H-imidazole] here?
A: > 10 µM

Q: For `N#Cc1ccccc1S(=O)(=O)N1C[C@@H](N)[C@H](c2ccccc2)C1` (relative stereo) [Example 527, 2-(Trans-3-amino-4-phenylpyrrolidin-1-ylsulfonyl)benzonitrile], which Ki is on record?
A: ≤ 10 µM
